IC50 data for 76 compounds are collected here from patent US8835472B2, “Compounds, pharmaceutical compositions and uses thereof” (Boehringer Ingelheim International GmbH, priority 2010, dated 2014).

A word on the IC50: it is the concentration at which inhibition is half-maximal. Lower therefore signals higher potency.

In the assay the target is human ACC2 (Homo sapiens (Human), UniProt O00763). The assay can be described thus: ACC2 assay, spectrophotometric 384 well assay (NADH-linked, coupled lactate dehydrogenase/pyruvate kinase reaction). The settings on record: hACC2 construct lacking the 128 N-terminal amino acids; 25° C., 340 nm over 15 minutes. It is filed as biochemical. The method in brief: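 Kinetic NADH-linked assay (pyruvate kinase/lactate dehydrogenase coupling) with baculovirus-expressed hACC2 missing its first 128 amino acids. Started with 500 μM ATP and 200 μM each NADH and acetyl-CoA; slope followed 15 min at 25 °C, pH 7.5. No-acetyl-CoA wells define 0%; IC50 by nonlinear regression.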
Sequence of human ACC2 (O00763 129-2458): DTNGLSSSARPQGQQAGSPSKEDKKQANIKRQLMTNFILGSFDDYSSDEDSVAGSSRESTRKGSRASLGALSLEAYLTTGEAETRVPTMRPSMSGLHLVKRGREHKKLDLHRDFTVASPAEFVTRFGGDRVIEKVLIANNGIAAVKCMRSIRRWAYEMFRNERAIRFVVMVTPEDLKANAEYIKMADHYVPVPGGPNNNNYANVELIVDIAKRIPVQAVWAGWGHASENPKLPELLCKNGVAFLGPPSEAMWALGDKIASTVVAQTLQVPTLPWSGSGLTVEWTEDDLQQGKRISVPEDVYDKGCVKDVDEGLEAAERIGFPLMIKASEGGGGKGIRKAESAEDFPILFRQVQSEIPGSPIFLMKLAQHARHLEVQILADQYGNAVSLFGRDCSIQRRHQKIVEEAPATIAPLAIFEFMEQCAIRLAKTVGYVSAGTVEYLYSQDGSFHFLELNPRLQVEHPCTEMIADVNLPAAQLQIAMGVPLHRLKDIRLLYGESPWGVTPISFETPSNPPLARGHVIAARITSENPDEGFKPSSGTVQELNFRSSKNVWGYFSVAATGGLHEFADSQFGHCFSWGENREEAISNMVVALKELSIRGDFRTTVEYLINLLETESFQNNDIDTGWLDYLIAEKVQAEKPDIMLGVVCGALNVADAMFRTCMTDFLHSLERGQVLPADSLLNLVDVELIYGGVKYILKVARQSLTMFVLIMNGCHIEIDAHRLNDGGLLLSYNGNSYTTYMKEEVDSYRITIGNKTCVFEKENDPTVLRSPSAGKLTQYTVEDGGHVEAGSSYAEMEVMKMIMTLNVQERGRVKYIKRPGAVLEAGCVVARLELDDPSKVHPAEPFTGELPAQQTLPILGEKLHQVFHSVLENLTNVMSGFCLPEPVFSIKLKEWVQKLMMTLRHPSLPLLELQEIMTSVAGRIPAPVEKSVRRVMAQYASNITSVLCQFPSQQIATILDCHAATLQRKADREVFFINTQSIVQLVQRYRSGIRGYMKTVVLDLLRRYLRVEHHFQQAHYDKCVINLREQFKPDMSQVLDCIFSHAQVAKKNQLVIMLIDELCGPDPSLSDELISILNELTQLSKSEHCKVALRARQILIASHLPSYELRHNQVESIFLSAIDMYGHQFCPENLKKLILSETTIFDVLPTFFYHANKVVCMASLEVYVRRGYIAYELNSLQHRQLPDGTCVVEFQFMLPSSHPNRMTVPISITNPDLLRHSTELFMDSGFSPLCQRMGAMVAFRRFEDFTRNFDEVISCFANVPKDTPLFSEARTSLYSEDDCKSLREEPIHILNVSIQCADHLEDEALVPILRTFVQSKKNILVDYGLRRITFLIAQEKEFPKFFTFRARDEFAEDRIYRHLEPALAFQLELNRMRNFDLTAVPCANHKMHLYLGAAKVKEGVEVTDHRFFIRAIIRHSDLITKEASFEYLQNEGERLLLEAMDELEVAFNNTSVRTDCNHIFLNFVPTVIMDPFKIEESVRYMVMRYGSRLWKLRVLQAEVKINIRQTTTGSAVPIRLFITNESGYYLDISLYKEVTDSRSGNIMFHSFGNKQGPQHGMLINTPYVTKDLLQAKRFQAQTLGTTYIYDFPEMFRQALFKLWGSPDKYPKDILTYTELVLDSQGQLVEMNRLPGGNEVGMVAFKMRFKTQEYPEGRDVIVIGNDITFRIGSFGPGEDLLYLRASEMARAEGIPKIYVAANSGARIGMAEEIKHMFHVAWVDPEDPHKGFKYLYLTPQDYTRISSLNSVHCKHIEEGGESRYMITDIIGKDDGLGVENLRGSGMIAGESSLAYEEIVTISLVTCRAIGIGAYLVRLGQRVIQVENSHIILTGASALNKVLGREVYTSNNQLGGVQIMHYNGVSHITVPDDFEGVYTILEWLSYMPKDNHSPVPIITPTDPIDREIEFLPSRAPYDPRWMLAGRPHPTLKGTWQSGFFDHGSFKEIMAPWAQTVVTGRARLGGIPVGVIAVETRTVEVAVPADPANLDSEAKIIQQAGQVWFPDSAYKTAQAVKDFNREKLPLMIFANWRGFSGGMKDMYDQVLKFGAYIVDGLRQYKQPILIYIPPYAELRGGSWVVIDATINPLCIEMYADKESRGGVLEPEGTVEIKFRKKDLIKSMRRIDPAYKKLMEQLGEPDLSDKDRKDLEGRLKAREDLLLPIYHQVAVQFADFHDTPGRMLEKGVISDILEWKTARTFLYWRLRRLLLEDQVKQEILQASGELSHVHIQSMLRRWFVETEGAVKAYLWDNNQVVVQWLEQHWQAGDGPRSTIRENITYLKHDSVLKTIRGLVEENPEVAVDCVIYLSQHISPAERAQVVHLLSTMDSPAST
For `CC(Cc1ccc(C#Cc2cnc(NC3CC3)nc2)cc1)NC(=O)C1CC1` (stereo not shown) [Example 13.48], the 50% inhibitory concentration (IC50) came to 1300 nM.

In turn, `CC(C)Nc1ncc(C#Cc2ccc(CC(C)NC(=O)C3CC3)cc2)cn1` (stereo not shown) [Example 13.49] came in with an IC50 of 2600 nM.

On to `CCC(C)Nc1ncc(C#Cc2ccc(CC(C)NC(=O)C3CC3)cc2)cn1` (stereo not shown) [Example 13.50], for which the IC50 was determined as 1500 nM.

In turn, `CC(Cc1ccc(C#Cc2cnc(N3CCC3)nc2)cc1)NC(=O)C1CC1` (stereo not shown) [Example 13.51] yielded a half-inhibitory concentration (IC50) of 2200 nM.

The compound `CCNc1ncc(C#Cc2ccc(CC(C)NC(=O)C3CC3)cc2)cn1` (stereo not shown) [Example 13.52] gave an IC50 of 5200 nM.

With `CC(Cc1ccc(C#Cc2cnc(NCCF)nc2)cc1)NC(=O)C1CC1` (stereo not shown) [Example 13.53], the IC50 was 5200 nM.

`CC(Cc1ccc(C#Cc2cnc(NCc3ccccc3)nc2)cc1)NC(=O)C1CC1` (stereo not shown) [Example 13.54]: the 50% inhibitory concentration (IC50) is 200 nM.

Regarding `CC(=O)NC(C)Cc1ccc(C#Cc2cnc(NCc3ccccc3C)nc2)cc1` (stereo not shown) [Example 13.55], the IC50 came out at 130 nM.

Take `CC(=O)NC(C)Cc1ccc(C#Cc2cnc(NCc3cccc(C)c3)nc2)cc1` (stereo not shown) [Example 13.56]: the midpoint of inhibition, the IC50, lay at 970 nM.

On to `CC(=O)NC(C)Cc1ccc(C#Cc2cnc(N3CCC(C)(C)CC3)nc2)cc1` (stereo not shown) [Example 13.57], for which inhibition was half-maximal at 220 nM (IC50).

In turn, `CC(=O)NC(C)Cc1ccc(C#Cc2cnc(N(C)C)nc2)cc1` (stereo not shown) [Example 13.58] registered a half-inhibitory concentration (IC50) of 1200 nM.

In the case of `CC(=O)NC(C)Cc1ccc(C#Cc2cnc(NCC(F)(F)F)nc2)cc1` (stereo not shown) [Example 13.59], the half-inhibitory concentration (IC50) is 360 nM.

`CNc1ncc(C#Cc2ccc(CC(C)NC(C)=O)cc2)cn1` (stereo not shown) [Example 13.60] came in with an IC50 of 250 nM.

The compound `CC(=O)NC(C)Cc1ccc(C#Cc2cnc(NCc3cnn(C)c3)nc2)cc1` (stereo not shown) [Example 13.61] returned an IC50 of 3800 nM.

With `CC(=O)NC(C)Cc1ccc(C#Cc2cnc(N[C@H]3CCc4ccccc43)nc2)cc1` (stereo partly shown) [Example 13.62], the IC50 is 330 nM.

As to `CC(=O)NC(C)Cc1ccc(C#Cc2cnc(N[C@@H]3CCc4ccccc43)nc2)cc1` (stereo partly shown) [Example 13.63], the IC50 was determined as 200 nM.

`CC(=O)NC(C)Cc1ccc(C#Cc2cnc(N3Cc4ccccc4C3)nc2)cc1` (stereo not shown) [Example 13.64] showed an IC50 of 800 nM.

`CC(=O)NC(C)Cc1ccc(C#Cc2cnc(NCCF)nc2)cc1` (stereo not shown) [Example 13.65] came in with an IC50 of 1600 nM.

Compound `CC(=O)NC(C)Cc1ccc(C#Cc2cnc(NC(C)C3CC3)nc2)cc1` (stereo not shown) [Example 13.66] came in with an IC50 of 150 nM.

In turn, `CC(=O)NC(C)Cc1ccc(C#Cc2cnc(NCC3CC3(C)C)nc2)cc1` (stereo not shown) [Example 13.67] yielded a half-inhibitory concentration (IC50) of 660 nM.

The compound `CC(=O)NC(C)Cc1ccc(C#Cc2cnc(N3CCC(C)(C)C3)nc2)cc1` (stereo not shown) [Example 13.68] had a half-inhibitory concentration (IC50) of 230 nM.

In the case of `CC(=O)NC(C)Cc1ccc(C#Cc2cnc(NCc3csc(C)n3)nc2)cc1` (stereo not shown) [Example 13.69], the IC50 is 5000 nM.

In turn, `CC(=O)NC(C)Cc1ccc(C#Cc2cnc(NCc3ncccn3)nc2)cc1` (stereo not shown) [Example 13.70] returned an IC50 of 6800 nM.

With `CC(=O)NC(C)Cc1ccc(C#Cc2cnc(N3CCC4(CCC4)C3)nc2)cc1` (stereo not shown) [Example 13.71], the IC50 is 210 nM.

Compound `CC(=O)NC(C)Cc1ccc(C#Cc2cnc(N3CCC4(CC4)C3)nc2)cc1` (stereo not shown) [Example 13.72] yielded a half-inhibitory concentration (IC50) of 190 nM.

Take `CC(=O)NC(C)Cc1ccc(C#Cc2cnc(N3CCC4(CCCC4)C3)nc2)cc1` (stereo not shown) [Example 13.73]: the midpoint of inhibition, the IC50, lay at 280 nM.

`COC1(C)CCN(c2ncc(C#Cc3ccc(CC(C)NC(C)=O)cc3)cn2)CC1` (stereo not shown) [Example 13.74] registered an IC50 of 1700 nM.

With `CC(=O)NC(C)Cc1ccc(C#Cc2cnc(NCCC(F)(F)F)nc2)cc1` (stereo not shown) [Example 13.75], the IC50 was determined as 170 nM.

In turn, `CC(=O)NC(C)Cc1ccc(C#Cc2cnc(NCC3CCCC3)nc2)cc1` (stereo not shown) [Example 13.76] gave an IC50 of 600 nM.

Take `CC(=O)NC(C)Cc1ccc(C#Cc2cnc(N3CCCC3)nc2)cc1` (stereo not shown) [Example 13.77]: the IC50 was 220 nM.

In turn, `CC(=O)NC(C)Cc1ccc(C#Cc2cnc(NC3CC3)nc2)cc1` (stereo not shown) [Example 13.78] gave an IC50 of 130 nM.

Take `CC(=O)NC(C)Cc1ccc(C#Cc2cnc(NCc3ccc(C)cc3)nc2)cc1` (stereo not shown) [Example 13.79]: the IC50 worked out at 110 nM.

Take `COc1ccccc1CNc1ncc(C#Cc2ccc(CC(C)NC(C)=O)cc2)cn1` (stereo not shown) [Example 13.80]: 480 nM corresponded to half-maximal inhibition (IC50).

In turn, `CCC(CC)Nc1ncc(C#Cc2ccc(CC(C)NC(C)=O)cc2)cn1` (stereo not shown) [Example 13.81] registered an IC50 of 330 nM.

The compound `CC(=O)NC(C)Cc1ccc(C#Cc2cnc(NCc3ccncc3)nc2)cc1` (stereo not shown) [Example 13.82] yielded an IC50 of 1200 nM.

Compound `CC(=O)NC(C)Cc1ccc(C#Cc2cnc(NCCC(C)(C)C)nc2)cc1` (stereo not shown) [Example 13.83] displayed an IC50 of 190 nM.

As for `CCC(C)CNc1ncc(C#Cc2ccc(CC(C)NC(C)=O)cc2)cn1` (stereo not shown) [Example 13.84], the midpoint of inhibition, the IC50, lay at 1000 nM.

In turn, `C=C1CCN(c2ncc(C#Cc3ccc(CC(C)NC(C)=O)cc3)cn2)CC1` (stereo not shown) [Example 13.85] showed an IC50 of 80 nM.

As for `COc1ccc(CNc2ncc(C#Cc3ccc(CC(C)NC(C)=O)cc3)cn2)cc1` (stereo not shown) [Example 13.86], it took 120 nM to reach half-maximal inhibition (IC50).

For `CC(=O)NC(C)Cc1ccc(C#Cc2cnc(NCCc3ccccc3)nc2)cc1` (stereo not shown) [Example 13.87], inhibition was half-maximal at 1000 nM (IC50).

On to `C[C@H](NC(=O)C1CC1)c1ccc(C#Cc2cnc(NC3CCC3)nc2)cc1` [Example 13.88], for which inhibition was half-maximal at 3100 nM (IC50).

With `CC(=O)N[C@@H](C)c1ccc(C#Cc2cnc(NC3CCC3)nc2)cc1` [Example 13.89], the midpoint of inhibition, the IC50, lay at 1000 nM.

`CC(=O)N[C@@H](C)c1ccc(C#Cc2cnc(NC3CC3)nc2)cc1` [Example 13.90]: the IC50 came out at 960 nM.

The compound `C[C@H](NC(=O)C1CC1)c1ccc(C#Cc2cnc(NC3CC3)nc2)cc1` [Example 13.91] returned an IC50 of 2900 nM.

`CC(=O)N[C@@H](C)c1ccc(C#Cc2cnc(NCc3ccccc3)nc2)cc1` [Example 13.92]: the 50% inhibitory concentration (IC50) is 7300 nM.

Compound `CC(=O)N[C@@H](C)c1ccc(C#Cc2cnc(N3CC4CCCC4C3)nc2)cc1` (stereo partly shown) [Example 13.93] showed an IC50 of 270 nM.

Regarding `CC(=O)N[C@@H](C)c1ccc(C#Cc2cnc(NCCC(F)(F)F)nc2)cc1` [Example 13.94], the IC50 amounted to 3600 nM.

For the compound `CCNc1ncc(C#Cc2ccc([C@H](C)NC(C)=O)cc2)cn1` [Example 13.95], the midpoint of inhibition, the IC50, lay at 2800 nM.

`CSc1nccc(C#Cc2ccc(CC(C)NC(C)=O)cc2)n1` (stereo not shown) [Example 14.1, N-{1-Methyl-2-[4-(2-methylsulfanyl-pyrimidin-4-ylethynyl)-phenyl]-ethyl}acetamide] displayed an IC50 of 1200 nM.

In turn, `CCOc1ccc(C#Cc2ccc(C(C)NC(C)=O)cc2)cn1` (stereo not shown) [Example 14.2] showed an IC50 of 5900 nM.

On to `CCCOc1cc(C#Cc2ccc(C(C)NC(C)=O)cc2)ccn1` (stereo not shown) [Example 14.3], for which the IC50 is 450 nM.

With `CCOc1cc(C#Cc2ccc(C(C)NC(C)=O)cc2)ncn1` (stereo not shown) [Example 14.4], the IC50 is 1500 nM.

Consider `CCCn1ccc(C#Cc2ccc(CC(C)NC(C)=O)cc2)cc1=O` (stereo not shown) [Example 14.5], for which the IC50 is 4100 nM.

Regarding `CC(=O)NC(C)Cc1ccc(C#Cc2ccc(OC3CCC3)cc2)cc1` (stereo not shown) [Example 14.6], the IC50 came to 120 nM.

Turning to `CC(=O)N[C@@H](C)c1ccc(C#Cc2ccc(OC3CCC3)cc2)cc1` [Example 14.7], inhibition was half-maximal at 70 nM (IC50).

Take `COc1ccc(C#Cc2ccc(CCC(C)NC(C)=O)cc2)cn1` (stereo not shown) [Example 14.8]: it took 1300 nM to reach half-maximal inhibition (IC50).

The compound `CC(=O)NC(C)CCc1ccc(C#Cc2ccc(OC(C)C)cc2)cc1` (stereo not shown) [Example 14.9] yielded an IC50 of 180 nM.

Turning to `CCOc1ccc(C#Cc2ccc(CCC(C)NC(C)=O)cc2)cc1` (stereo not shown) [Example 14.10], the IC50 worked out at 100 nM.

Regarding `CCCOc1ccc(C#Cc2ccc(CCC(C)NC(C)=O)cc2)cc1` (stereo not shown) [Example 14.11], 130 nM corresponded to half-maximal inhibition (IC50).

Consider `CC(=O)NC(C)CCc1ccc(C#Cc2ccc(OCC3CC3)cc2)cc1` (stereo not shown) [Example 14.12], for which the IC50 came to 170 nM.

In the case of `CC(=O)NC(C)CCc1ccc(C#Cc2ccc(OCC(C)C)cc2)cc1` (stereo not shown) [Example 14.13], the 50% inhibitory concentration (IC50) was found to be 220 nM.

`CC(=O)NC(C)CCc1ccc(C#Cc2ccc(OC3CCCC3)cc2)cc1` (stereo not shown) [Example 14.14]: the IC50 was determined as 160 nM.

Regarding `CCC(C)Oc1ccc(C#Cc2ccc(CCC(C)NC(C)=O)cc2)cc1` (stereo not shown) [Example 14.15], 140 nM corresponded to half-maximal inhibition (IC50).

In turn, `CCCOc1cc(C#Cc2ccc(CCC(C)NC(C)=O)cc2)ccn1` (stereo not shown) [Example 14.16] came in with an IC50 of 120 nM.

With `CC(C)COc1ccc(C#Cc2ccc(CC(C)NC(=O)C3CC3)cc2)cc1` (stereo not shown) [Example 14.17], half-maximal inhibition (IC50) required 510 nM.

`CC(Cc1ccc(C#Cc2ccc(OCC3CC3)cc2)cc1)NC(=O)C1CC1` (stereo not shown) [Example 14.18]: the IC50 was 140 nM.

`CCOc1ccc(C#Cc2ccc([C@H](C)NC(C)=O)cc2)cc1` [Example 14.19] had an IC50 of 190 nM.

With `CC(=O)N[C@@H](C)c1ccc(C#Cc2ccc(OC(C)C)cc2)cc1` [Example 14.20], the half-inhibitory concentration (IC50) came out at 510 nM.

In turn, `CC(=O)NC(C)Cc1ccc(C#Cc2ccc(OCCC(C)C)nn2)cc1` (stereo not shown) [Example 14.21] displayed an IC50 of 3100 nM.

On to `CCCOc1cc(C#Cc2ccc([C@@H](C)NC(C)=O)cc2)ccn1` [Example 14.22], for which the IC50 is 13400 nM.

As for `CCCOc1ccc(C#Cc2ccc([C@H](C)NC(C)=O)cc2)cc1` [Example 14.23], it took 140 nM to reach half-maximal inhibition (IC50).

`CCCOc1cc(C#Cc2ccc([C@H](C)NC(C)=O)cc2)ccn1` [Example 14.24] displayed an IC50 of 200 nM.

Compound `CCOc1ccc(C#Cc2ccc([C@H](C)NC(C)=O)cc2)cn1` [Example 14.25] came in with an IC50 of 1800 nM.

Take `CC(=O)N[C@@H](C)c1ccc(C#Cc2ccc(OCC(C)C)cc2)cc1` [Example 14.26]: it took 140 nM to reach half-maximal inhibition (IC50).

In turn, `CC(Cc1ccc(C#Cc2ccc(Oc3cncnc3)nc2)cc1)NC(=O)C1CC1` (stereo not shown) [Example 14.27] registered an IC50 of 3700 nM.

Compound `CC(C)Oc1ccc(C#Cc2ccc([C@H](C)NC(=O)C3CC3)cc2)cc1` [Example 14.28] returned an IC50 of 3400 nM.
